From patent publication US20100286038A1, “FORMULATION CONTAINING CYCLIN-DEPENDENT KINASE INHIBITING COMPOUND AND METHOD OF TREATING TUMORS USING THE SAME” (priority 2007, published 2010) come the findings set out here.

Structures are written as SMILES.

Assay [1] concerns A2780 ovarian carcinoma xenografts. The assay is described as follows: A2780 xenograft ovarian cancer model. It counts as in vivo, nude mice.
Assay [2] deals with phospho-Rb Ser 807/811. The following applies: single dose IP 40 mg/kg; samples post dose vs T0. The text has this:
Skin samples were harvested at various intervals following dosing and compared with biopsies harvested prior to dosing (T0). Biopsied samples were fixed overnight in 10% formalin.

The target of assay [3] is T1, CDK7/cyclinH/MAT1 (Homo sapiens, UniProt P50613).
T1 construct: purchased Upstate
T1 sequence (P50613 whole entry, species assumed): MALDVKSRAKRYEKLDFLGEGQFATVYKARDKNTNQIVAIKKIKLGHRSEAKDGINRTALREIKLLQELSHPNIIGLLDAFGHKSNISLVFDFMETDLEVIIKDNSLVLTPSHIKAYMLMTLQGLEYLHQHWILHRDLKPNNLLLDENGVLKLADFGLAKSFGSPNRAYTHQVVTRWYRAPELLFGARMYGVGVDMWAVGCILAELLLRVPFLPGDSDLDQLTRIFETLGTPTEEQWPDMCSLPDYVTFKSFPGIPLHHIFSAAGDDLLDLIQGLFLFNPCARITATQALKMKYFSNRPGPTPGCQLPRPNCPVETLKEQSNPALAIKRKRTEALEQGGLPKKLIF
T1 sequence (P51946 whole entry partner, species assumed): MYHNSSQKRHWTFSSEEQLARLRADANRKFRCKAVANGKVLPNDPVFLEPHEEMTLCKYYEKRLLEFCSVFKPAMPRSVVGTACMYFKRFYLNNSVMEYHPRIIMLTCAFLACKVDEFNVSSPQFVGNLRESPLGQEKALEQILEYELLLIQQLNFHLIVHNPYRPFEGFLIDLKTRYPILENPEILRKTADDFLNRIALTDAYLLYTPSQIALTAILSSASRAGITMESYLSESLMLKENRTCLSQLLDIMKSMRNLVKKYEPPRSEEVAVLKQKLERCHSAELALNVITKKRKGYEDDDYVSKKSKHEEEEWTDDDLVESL
T1 sequence (P51948 whole entry partner, species assumed): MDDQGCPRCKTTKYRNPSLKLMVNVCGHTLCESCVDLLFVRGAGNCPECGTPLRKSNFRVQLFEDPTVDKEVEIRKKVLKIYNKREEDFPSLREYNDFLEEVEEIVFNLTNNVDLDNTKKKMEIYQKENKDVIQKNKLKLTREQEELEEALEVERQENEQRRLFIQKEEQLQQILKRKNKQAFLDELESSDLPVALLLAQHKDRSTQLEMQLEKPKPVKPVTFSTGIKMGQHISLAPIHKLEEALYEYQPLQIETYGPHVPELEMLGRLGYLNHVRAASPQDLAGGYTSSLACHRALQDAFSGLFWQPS
The assay can be described thus: Upstate kinase Profiler counter-screening. The assay is classed as biochemical. For orientation: Counterscreens check selectivity or assay interference.

The target of assay [4] is T2, YES (Homo sapiens, UniProt P07947).
T2 construct: purchased Upstate
T2 sequence (P07947 whole entry, species assumed): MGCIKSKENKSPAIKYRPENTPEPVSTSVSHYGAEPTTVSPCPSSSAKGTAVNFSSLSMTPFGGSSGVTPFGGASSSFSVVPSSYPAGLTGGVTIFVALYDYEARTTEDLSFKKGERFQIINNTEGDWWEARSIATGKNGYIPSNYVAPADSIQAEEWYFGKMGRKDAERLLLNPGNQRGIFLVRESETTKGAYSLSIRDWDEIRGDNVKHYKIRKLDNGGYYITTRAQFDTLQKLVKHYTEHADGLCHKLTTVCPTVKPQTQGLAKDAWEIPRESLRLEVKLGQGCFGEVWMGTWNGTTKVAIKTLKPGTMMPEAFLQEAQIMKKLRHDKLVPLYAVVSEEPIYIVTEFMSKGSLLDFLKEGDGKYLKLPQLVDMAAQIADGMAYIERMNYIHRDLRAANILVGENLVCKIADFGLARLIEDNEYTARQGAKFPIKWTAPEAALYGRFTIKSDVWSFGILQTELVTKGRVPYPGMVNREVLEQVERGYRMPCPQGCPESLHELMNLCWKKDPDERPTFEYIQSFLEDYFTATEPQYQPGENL
The assay is described as follows: Upstate kinase Profiler counter-screening. It counts as biochemical. The settings on record: at 1 μM.

Consider `CCc1cnn2c(NCc3ccc[n+]([O-])c3)cc(N3CCCC[C@H]3CCO)nc12` [Formula II], for which the tumor growth inhibition in assay [1] (8 mg/kg IP daily for 10 days) is on record as 70%; in assay [1] (16 mg/kg IP daily for 10 days), 70%; in assay [1] (32 mg/kg IP daily for 10 days), 90%; in assay [1] (48 mg/kg IP daily for 10 days) it was 96%. In addition, the “50% inhibition level (minimum effective dose)” value in assay [1] (IP daily for 10 days) is “less than 8 mg/kg”. In assay [1] (once per day IP for 7 days, dose inducing at least 50% inhibition of tumor growth), the MED was 5 mg/kg. In addition, the “phospho-Rb in proliferating epithelial cells of basal epithelium and hair follicles” value in assay [2] is “rapid and sustained suppression of phospho-Rb”. For the same molecule, the “% remaining activity” value was 7% in assay [3] (at 1 μM), 4% in assay [3] (at 10 μM) and 92% in assay [4].
